Each molecule was assayed on recombinant guanylate cyclase reporter cell line (assay: Effect on a recombinant guanylate cyclase reporter cell line). Settings: in some cases mean values from individual determinations, read-out: MEC (minimum effective concentration).
Assay type: cell-based
Experimental: B-2. Effect on a Recombinant Guanylate Cyclase Reporter Cell Line
The cellular activity of the compounds according to the invention is determined using a recombinant guanylate cyclase reporter cell line, as described in F. Wunder et al., Anal. Biochem. 339, 104-112 (2005).
Representative MEC values (MEC=minimum effective concentration) for the compounds of the invention are shown in the table below (in some cases as mean values from individual determinations): […]

Compared with `CCCC[C@H](CO)NC(=O)c1cc(C)nc2c(OCc3c(F)cccc3F)cccc12` [Example 46, ent-8-[(2,6-Difluorobenzyl)oxy]-N-[(2R)-1-hydroxyhexan-2-yl]-2-methylquinoline-4-carboxamide (Enantiomer)], `CCCC[C@H](CO)NC(=O)c1cnc2c(OCc3c(F)cccc3F)cccc2c1` [Example 38, 8-[(2,6-Difluorobenzyl)oxy]-N-[(2R)-1-hydroxyhexan-2-yl]quinoline-3-carboxamide] is 1.5-fold higher in minimal effective concentration: 2 µM for the first, 3 µM for the second.

Compared with `CN1CCC(NC(=O)c2ccnc3c(OCc4c(F)cccc4F)cccc23)c2ccccc21` (centres unmarked) [Example 27], `O=C(NC1c2ccccc2CC1O)c1ccnc2c(OCc3c(F)cccc3F)cccc12` (centres unmarked) [Example 9] is 3-fold higher in minimal effective concentration: 1 µM for the first, 3 µM for the second.

`O=C(NCCN1CCOCC1)c1ccnc2c(OCc3c(F)cccc3F)cccc12` [Example 16] and `CN(C)CCNC(=O)c1ccnc2c(OCc3c(F)cccc3F)cccc12` [Example 14] are the same in minimal effective concentration: 10 µM for the first, 10 µM for the second.

`CC(N)(CCC(F)(F)F)CNC(=O)c1cnc2c(OCc3c(F)cccc3F)cccc2c1` (single isomer, unassigned; enantiomer b) [Example 40, ent-N-(2-Amino-5,5,5-trifluoro-2-methylpentyl)-8-[(2,6-difluorobenzyl)oxy]quinoline-3-carboxamide (Enantiomer B)] and `CC[C@](C)(N)CNC(=O)c1cnc2c(OCc3c(F)cccc3F)cccc2c1` [Example 41, N-[(2S)-2-Amino-2-methylbutyl]-8-[(2,6-difluorobenzyl)oxy]quinoline-3-carboxamide] are the same in minimal effective concentration: 10 µM for the first, 10 µM for the second.

`O=C(NC1(c2ccc(F)c(F)c2)CC1)c1ccnc2c(OCc3c(F)cccc3F)cccc12` [Example 1, 8-[(2,6-Difluorobenzyl)oxy]-N-[1-(3,4-difluorophenyl)cyclopropyl]quinoline-4-carboxamide] and `N#CC(NC(=O)c1ccnc2c(OCc3c(F)cccc3F)cccc12)c1ccc(Cl)cc1` (centres unmarked) [Example 31] are the same in minimal effective concentration: 3 µM for the first, 3 µM for the second.

First: CC(N)(CCC(F)(F)F)CNC(=O)c1ccnc2c(OCc3c(F)cccc3F)cccc12 (single isomer, unassigned; enantiomer b) [Example 6, ent-N-(2-Amino-5,5,5-trifluoro-2-methylpentyl)-8-[(2,6-difluorobenzyl)oxy[quinoline-4-carboxamide (Enantiomer B)]
Second: Cc1cc(OCc2c(F)cccc2F)c2nccc(C(=O)NCC(C)(N)CCC(F)(F)F)c2c1 (single isomer, unassigned; enantiomer b) [Example 45, ent-N-(2-Amino-5,5,5-trifluoro-2-methylpentyl)-8-[(2,6-difluorobenzyl)oxy]-6-methylquinoline-4-carboxamide (Enantiomer B)]
The minimal effective concentration of the first is 2.2-fold lower: 0.3 µM for the first, 0.65 µM for the second.

Compared with `COc1ccc(CC(C)(N)CNC(=O)c2ccnc3c(OCc4c(F)cccc4F)cccc23)cc1` (single isomer, unassigned; enantiomer b) [Example 37, ent-N-[2-Amino-3-(4-methoxyphenyl)-2-methylpropyl]-8-[(2,6-difluorobenzyl)oxy]quinoline-4-carboxamide (Enantiomer B)], `CC[C@](C)(N)CNC(=O)c1ccnc2c(OCc3c(F)cccc3F)cccc12` [Example 5, N-[(2S)-2-Amino-2-methylbutyl]-8-[(2,6-difluorobenzyl)oxy]quinoline-4-carboxamide] is 3.3-fold lower in minimal effective concentration: 10 µM for the first, 3 µM for the second.

`O=C(NCCC1(O)CCCC1)c1ccnc2c(OCc3c(F)cccc3F)cccc12` [Example 8, 8-[(2,6-Difluorobenzyl)oxy]-N-[2-(1-hydroxycyclopentyl)ethyl]quinoline-4-carboxamide] and `O=C(NCCN(CC(F)F)C1CC1)c1ccnc2c(OCc3c(F)cccc3F)cccc12` [Example 23] are the same in minimal effective concentration: 3 µM for the first, 3 µM for the second.

`CC(N)(CNC(=O)c1ccnc2c(OCc3c(F)cccc3F)cccc12)C1CC1` (racemic) [Example 42, rac-N-(2-Amino-2-cyclopropylpropyl)-8-[(2,6-difluorobenzyl)oxy]quinoline-4-carboxamide] and `O=C(N[C@H]1CCOC1=O)c1ccnc2c(OCc3c(F)cccc3F)cccc12` [Example 24] are the same in minimal effective concentration: 10 µM for the first, 10 µM for the second.

First: Cc1cc(OCc2c(F)cccc2F)c2nccc(C(=O)NC(C)(CO)c3nnn(C(F)F)n3)c2c1 (racemic) [Example 49, rac-8-[(2,6-Difluorobenzyl)oxy]-N-{2-[2-(difluoromethyl)-2H-tetrazol-5-yl]-1-hydroxypropan-2-yl}-6-methylquinoline-4-carboxamide]
Second: CCC(CO)(CO)NC(=O)c1ccnc2c(OCc3c(F)cccc3F)cccc12 [Example 25]
The minimal effective concentration of the first is 5-fold lower: 2 µM for the first, 10 µM for the second.

Compared with `O=C(NC1CCOc2ncccc21)c1ccnc2c(OCc3c(F)cccc3F)cccc12` (centres unmarked) [Example 34], `O=C(NC(CO)c1ccc(F)cc1)c1ccnc2c(OCc3c(F)cccc3F)cccc12` (centres unmarked) [Example 33] is 2-fold higher in minimal effective concentration: 1 µM for the first, 2 µM for the second.

`Cc1[nH]nc(C(F)(F)F)c1NC(=O)c1ccnc2c(OCc3c(F)cccc3F)cccc12` [Example 19] and `CC(NC(=O)c1ccnc2c(OCc3c(F)cccc3F)cccc12)c1nc(C(F)(F)F)no1` (centres unmarked) [Example 18] are the same in minimal effective concentration: 3 µM for the first, 3 µM for the second.

Compared with `CC(COCC(F)(F)F)NC(=O)c1ccnc2c(OCc3c(F)cccc3F)cccc12` (centres unmarked) [Example 21], `Cc1cc(C(=O)NCC(C)(N)CCC(F)(F)F)c2cccc(OCc3c(F)cccc3F)c2n1` (single isomer, unassigned; enantiomer b) [Example 43, ent-N-(2-Amino-5,5,5-trifluoro-2-methylpentyl)-8-[(2,6-difluorobenzyl)oxy]-2-methylquinoline-4-carboxamide (Enantiomer B)] is 3-fold lower in minimal effective concentration: 3 µM for the first, 1 µM for the second.

`CCC(C)(N)CNC(=O)c1cc(C)nc2c(OCc3c(F)cccc3F)cccc12` (single isomer, unassigned; enantiomer b) [Example 47, ent-N-(2-Amino-2-methylbutyl)-8-[(2,6-difluorobenzyl)oxy]-2-methylquinoline-4-carboxamide (Enantiomer B)] and `COc1ccc(CC(C)(N)CNC(=O)c2ccnc3c(OCc4c(F)cccc4F)cccc23)cc1` (single isomer, unassigned; enantiomer a) [Example 36, ent-N-[2-Amino-3-(4-methoxyphenyl)-2-methylpropyl]-8-[(2,6-difluorobenzyl)oxy]quinoline-4-carboxamide (Enantiomer A)] are the same in minimal effective concentration: 3 µM for the first, 3 µM for the second.

Work on `O=C(NCc1ccccc1-c1cccnc1)c1ccnc2c(OCc3c(F)cccc3F)cccc12` [Example 15] yielded a minimal effective concentration of 10 µM.

Source: patent publication US20170233345A1, “SUBSTITUTED QUINOLINE-4-CARBOXAMIDES AND USE THEREOF” (BAYER PHARMA AKTIENGESELLSCHAFT, priority 2014, published 2017)
